Results reported in patent publication US5587463A, “Texaphyrin macrocycles and metal complexes thereof” (Board of Regents, The University of Texas System, priority 1994, dated 1996).

Columns and labels:
[1] = system: tumor; conditions: in vivo; cited from earlier work
[2] = Stability to demetallation (sulfide, thiosulfate); assay type: physicochemical
Description: The above K1 and K2 (or K1 K2) values are predicated on the assumption that the cadmium complexes under discussion are stable with regards to demetallation and that the equilibria of equations 1 and 2 (or 3) pertain under the conditions of base binding. The first of these concerns is readily apparent: If demetallation occurs, then obviously one is not studying base binding! […] The second concern is particularly important within the context of quantitative work: If, for instance, the starting complex 3.cndot.NO3 is not rigorously five coordinate, then K1 (and perhaps K2 as well) would represent an axial ligand displacement reaction rather than a pure addition process as implied above. Control experiments indicate that the assumption of initial five coordination is reasonable: Independent titrations of 3A .cndot.NO3 with NH4 NO3 and H2 O indicate that only modest and monotonic changes in the chemical shift of the "meso" signals take place over the course of adding ≥50 equivalents of these potentially adventitious ligands.^40 This means that either "complete" binding occurs at 1:1 stoichiometry (essentially ruled out in the case of H2 O on the basis of analytical data), or that these species are poorly coordinating in CHCl3 so that five coordination pertains about cadmium; the latter interpretation appearing more likely.
(§1) Attempts to demetallate complex 3A .cndot.NO3 were made. In an effort to obtain the free sp^2 bridged ligand 2A, the above complex in chloroform was stirred for several hours in the presence of sodium sulfide and independently with sodium thiosulfate. […] In the case of sodium sulfide, this critical conclusion was further supported by FAB MS: Other than the starting cationic complex 3A, no evidence was obtained for any moderate to high molecular weight volatile products in the mass spectrum. […] The rate of this process, however, is strongly pH dependent, the half-life being, for instance, on the order of several hours in the presence of ca. 0.1N HCl.

[3] = Optical and photophysical properties of metallotexaphyrins (laser flash photolysis, fluorescence, singlet oxygen luminescence); assay type: physicochemical; conditions: preliminary, photoexcitation at 350 nm
Description: Finally, several complexes containing paramagnetic metal ions (e.g. Mn^II, Sm^III, and Eu^III, structures 5c -7c) were investigated.
Comparison of the initial intensity with that obtained using tetrakis (4-hydroxyphenyl)porphyrin (THPP) as photosensitizer^3b under identical conditions allowed calculation of the quantum yields for production of singlet oxygen (^.phi. 1.cndot.2).

[4] = Hydrolysis in aqueous acid; assay type: physicochemical; conditions: aqueous acid
Description: as §1

[5] = Axial base binding of benzimidazole, 1H NMR spectral titration; conditions: CDCl3; Scatchard plot; estimated error ≤15%; read-out: K1 (benzimidazole) (converted)
Description: For a rigorously five coordinate starting cadmium complex, such as that represented schematically by structure 3A, where neither the counter anion nor adventitious ligands serves to occupy an apical coordination site, base binding can be considered to occur in accord with equations (1) and (2) shown below. Under conditions where K1 […]K2, these processes can be considered to occur sequentially, giving first a monoligated, presumably pentagonal pyramidal six coordinate species (such as 4bA), followed by a coordinatively saturated bisligated pentagonal bipyramidal product akin to 5aA. Where, however, K2 >>K1this stepwise conceptual approach is invalid. Under these conditions, it becomes easier to analyze the base binding in terms of direct formation of the bisligated material as shown in equation (3).
L+B LB K1 =[LB]/[L][B] (1)
LB+B LB2 K2 =[LB2 ]/[LB][B] (2)
L+2B LB2 K1 K2 =[LB2 ]/[L][B]^2 (3)
The ^1 H NMR titration of 3A .cndot.NO3 with BzIm or pyr-D5 was done. Rigorously purified complex 3A .cndot.NO3 was dried at 80° C. under reduced pressure (1 mmHg) for 1 day. Starting samples for titration were then prepared by dissolving this five coordinate complex (3.32 mg, 0.005 mmol) in 0.7 to 0.75 ml of CDCl3 and transferring quantitatively to an NMR tube. To such samples were then added increasing aliquots of either BzIm or pyr-D5 (as solutions of known concentration in CDCl3) and recording the chemical shift of the "meso" protons at 27^Q C. Control experiments were also carried out by adding known quantities of CF3 CO2 H, D2 O, and NH4 NO3 to similar stock solutions of 3.cndot.NO3.
Determination of Binding Constants. […] The chemical shift data obtained for the "meso" signals as a function of added BzIm were thus analyzed as such at both very low and very high conversion: Standard Scatchard (single reciprocal) plots^38 were constructed by plotting (δ-δo)/[BzIm] vs (δ-δo) according to equation 4 (which corresponds to eq. 5.13 of ref. 38), obtaining K as the absolute value of the slope and the term (δ.infin. -δo)K as the intercept.
(δ-δo)/[BzIm]=-K(δ-δo)+(δ.infi
Here δ is the observed chemical shift, δo is the initial chemical shift of the pure five or six coordinate starting complex (3A .cndot.NO3 or 4bA --NO3), δ.infin. the chemical shift calculated for the final mono- or bisligated complexes 4bA .cndot.NO3 or 5aA .cndot.NO3, K the equilibrium constant in question, and [BzIm] the concentration of free, uncomplexed benzimidazole. […] This was done in a straightforward manner according to the expressions given in equations 5 and 6, where [lig]o represents the concentration of the starting five coordinate ligand 3A .cndot.NO3.
(δ-δo)/δ.infin. -δo) at low
[BzIm].congruent.[BzIm]o -[lig]o at high [BzIm]o (6)
Using these corrected values for [BzIm], straight line Scatchard plots were obtained with R[…]0.99 and 0.98 respectively for the low and high [BzIm]o regimes giving values of K1 and K2 of 1.80×10^4 M^-1 and 12.9 M^-1 respectively.

[6] = system: peripheral mononucleated vascular cells (PMC); assay: Mitogenic assay ([3H]-Thy uptake after PHA stimulation) of peripheral mononucleated vascular cells in whole human plasma; assay type: cell-based; conditions: 0.15 μM, 20 joules/cm^2 of 770 nm light, aerobic
Procedure: Cell kill was determined by [3H]-Thy uptake after phytohemagglutin (PHA) stimulation.
Cell kill was determined by [^3 H]-Thy uptake after PHA stimulation.
The inactivation of PMC's in the absence and presence of light after exposure to concentrations of complex 3A in whole human plasma ranging from 0.015 to 38 μM is shown in FIG. 29 and FIG. 30. Inactivation was judged by mitogenic assay. Toxicity onset with 3A (see FIG. 4B) and 1c (see FIG. 19) in the absence of light was between 0.15 and 1.5 μM (FIG. 29). […] Moderate increase in either photosensitizer concentration or light dosage is expected to result in essentially complete cellular inactivation.

[7] = system: Herpes Simplex Virus Type 1 (HSV-1); assay: HSV-1 photoinactivation, viral plaque assay in Vero cells; assay type: cell-based; conditions: for % Survival Viral Infectivity: light at max absorption, 10 J/cm^2
Description: The photosensitized inactivation of Herpes Simple Virus, Type 1 (HSV-1) was investigated in culture medium using various macrocycles of the present invention.
The macrocycle photosensitizing studies employed enveloped HSV-1 as the model for screening based on its ease of propagation and assessment of infectivity in cell culture. The screening procedure for photoinactivation of HSV-1 was similar to the methods previously described.^3 Essentially, selected macrocycles at different concentrations were added to a cell-free suspension of 10^6 PFU/ml of HSV-1. The viral suspensions were irradiated at the optimal absorption wavelength of the selected dye at different light-energy densities. Controls consisted of (1) nonirradiated virus, (2) virus irradiated in the absence of macrocycle, and (3) virus treated with selected concentrations of macrocycle and maintained in the dark. All samples were then assessed for viral infectivity by determining the number of PFU/ml in Vero cells.
Viral suspensions were serially diluted and subsequently absorbed onto Vero cell monolayers for 11/2 hours at 37^~ C. An overlay medium was added and the cells incubated at 37^~ C. for 3-4 days. The overlay medium was then removed, the monolayers fixed with methanol and tinctured with Giemsa, and individual plaques counted under a dissecting microscope. Uninfected cell cultures also were exposed to the macrocycle complexes to rule out direct cytotoxic effects.

[8] = 37° C. in water, 20 MHz; cited from earlier work
[9] = cited from earlier work
[10] = aqueous solution; 0.01 to 1 mM; cited from earlier work

In the case of O=S(=O)([O-])c1ccc(-c2c3nc(c(-c4ccc(S(=O)(=O)[O-])cc4)c4ccc([n-]4)c(-c4ccc(S(=O)(=O)[O-])cc4)c4ccc([n-]4)c(-c4ccc(S(=O)(=O)[O-])cc4)c4nc2C=C4)C=C3)cc1.[Mn+3] [[Mn(III)TPPS]^3 -], the tumor localizing properties [1] is given as “good tumor localizing properties”.

In the case of CCC1=C(C)c2cnc3ccccc3ncc3nc(cc4[n-]c(cc1n2)c(CC)c4CC)C(CC)=C3C.[Cd+2] [complex 3A], the demetallation by sulfide ([2]; aqueous Na2 S / excess sulfide anion) is reported as “no demetallation takes place”, the “stability relative to cadmium porphyrins” value ([2]; neutral conditions / base binding controls) is reported as “more stable than cadmium porphyrins” and the triplet quantum yield [3] is reported as “roughly 80%”. The “triplet quenching in the presence of air” value [3] was “quenched completely by formation of singlet oxygen”, the triplet lifetime ([3]; absence of oxygen) was 54 μs and the “hydrolysis in aqueous acid” value [4] was “leads to hydrolysis of the macrocyle”. For the same molecule, the Kd [5] was 55.6 µM, the “inhibition of cellular division” value [6] was “significant inhibition of the cellular division of PMC's” and the “% Survival Viral Infectivity” value ([7]; 0.25 μM) was 100%. For the same molecule, the “% Survival Viral Infectivity” value ([7]; 2.5 μM) was 20%, the “% Survival Viral Infectivity” value ([7]; 10 μM) was 8% and the “% Survival Viral Infectivity” value ([7]; 20 μM) was 12%. For the same molecule, the viral inactivation ([7]; 20 μM, viral plaque assay) was at least 90%.

For CNC[C@H](O)[C@@H](O)[C@H](O)[C@H](O)CO.CNC[C@H](O)[C@@H](O)[C@H](O)[C@H](O)CO.O=C([O-])CN(CCN(CC(=O)[O-])CC(=O)O)CCN(CC(=O)[O-])CC(=O)O.[Gd+3] [[Gd(DTpA)(H2 O)]^2-, bis(N-methylglucamine) salt of Gd(III) diethylenetriaminepentaacetate], the relaxivity [8] is given as 3.7 mM-^1 s-^1, the excretion ([9]; after administration) is given as “excreted intact through the kidneys within several days of administration” and the localization ([9]; in vivo) is given as “localizes selectively in extracellular regions”.

In the case of [Gd+3] [Gd(III)], the “toxicity for direct use in MRI imaging” value [10] is listed as “too toxic to be used directly”.
